In this experiment the test system is CEM cells HIV-1 protection, formazan growth assay. The experiment can be described thus: NCI AIDS Antiviral Assay. Conditions: for IC50: measured here: growth of uninfected CEM cells. The gist of the method: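 Screen of anti-HIV-1 activity in human CEM cells using a formazan-based growth measurement at five drug concentrations. Hits with 50% or greater protection were repeated, and confirmation required reproducible complete protection.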

Calls of active or inactive are those of the source.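 Rule for the calls: active = compounds giving half or more protection of infected cells from virus-caused growth loss, again on retest; inactive = the rest.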

As to `CC1(Cl)C2c3ccccc3C(c3ccccc32)C1(C)Cl` (centres undefined), the EC50 is greater than 24 µM and the IC50 is greater than 24 µM.
`Cn1cc(NC(=O)[C@H]2CCC(N)=N2)cc1C(=O)NCCC(=N)N`: the outcome was inactive.
Take `O=[N+]([O-])c1ccc(N=Nc2c(F)cc(NCS(=O)(=O)O)cc2F)cc1`: the EC50 is greater than 100 µM and the IC50 is greater than 100 µM.
On to `O/N=C(/C(Cl)=C(Cl)Cl)C(Cl)Cl`, for which the EC50 is greater than 200 µM and the IC50 was found to be 33.1 µM.
As to `CC(C)c1c(Cc2ccccc2)n(COCCC[Se]c2ccccc2)c(=O)[nH]c1=O`, the EC50 is 0.0501 µM and the IC50 is 1.38 µM.
In the case of `CN(C)CCN(C)CC1COC(C)(C)O1` (centres undefined), the outcome was inactive.
For the compound `CCN(CC)c1ccc2cc(-c3csc(C)n3)c(=O)oc2c1`, the EC50 was greater than 200 µM and the IC50 was 10.2 µM.
As to `O=C1CC2CC(=O)CC2(C2CC=CC2)C1` (centres undefined), the EC50 was greater than 245 µM and the IC50 was greater than 245 µM.
Regarding `COC(=O)Oc1nn(C(=O)OC)c(=O)c2ccccc12` (tested in a mixture with another compound), the EC50 is greater than 200 µM and the IC50 was greater than 200 µM.
Take `C#CCN(Cc1ccc2nc(-c3ccccc3)c(Cl)nc2c1)c1ccc(Cl)c(Cl)c1`: the EC50 is greater than 200 µM and the IC50 is greater than 200 µM.
On to `CC(CCC#N)(CCC#N)C(=O)CC(O)(C(F)(F)F)C(F)(F)F`, for which the EC50 was greater than 200 µM and the IC50 was 2.34 µM.
For the compound `COc1ccc2c(c1)C(=O)CC1c3cnccc3C(=O)N21` (centres undefined), the EC50 is greater than 200 µM and the IC50 came to 115 µM.
As for `CS(=O)(=O)c1cc(=O)[nH]c(=O)[nH]1`, the EC50 is 77.6 µM and the IC50 is 102 µM.
Consider `S=C(N/N=C\c1ccccn1)N/N=C\c1ccccn1`, for which the EC50 is greater than 2 µM and the IC50 was 0.813 µM.
The corresponding values for `C=C(Nc1ccc([N+](=O)[O-])cc1[N+](=O)[O-])c1c/c(=N\NC(N)=S)c2ccccc2o1` are greater than 117 µM and greater than 117 µM.
The corresponding values for `C#CCN1C(=O)c2ccccc2S1(=O)=O.[C-]#[O+].[C-]#[O+].[C-]#[O+].[C-]#[O+].[C-]#[O+].[C-]#[O+].[Co].[Co]` are greater than 200 µM and 7.08 µM.
As for `COc1ccc(N)c(N2C(=O)c3ccccc3C2=O)c1`, the EC50 is greater than 200 µM and the IC50 was greater than 200 µM.
Take `CC(=O)[C@H]1CCC2[C@@H]3CC=C4C[C@@H](OC5OC(COS(=O)(=O)O)C(O)C(O)C5O)CC[C@]4(C)C3CC[C@@]21C` (some centres undefined): the EC50 is greater than 38 µM and the IC50 was greater than 38 µM.
As for `CCOC(=O)/C(=C/c1ccc(C(F)(F)F)cc1)N(CC)CC`, the EC50 is greater than 158 µM and the IC50 was found to be 64.6 µM.
Turning to `Cc1cc(C)c2ccc(N3CCNCC3)nc2n1`, the EC50 is greater than 174 µM and the IC50 worked out at 70.8 µM.
Take `O=C(/C=C/c1ccc(O)cc1)c1cc(Cl)ccc1O`: the result was inactive.
With `O=c1[nH]c(=O)n(C2CC(O)C(CO)O2)cc1Oc1ccccc1` (centres undefined), the EC50 is greater than 200 µM and the IC50 is greater than 200 µM.
For the compound `CN(C)C(=O)N(CCC#N)CCN(C(=O)N(C)C)c1ccccc1`, the EC50 is greater than 200 µM and the IC50 is greater than 200 µM.
As for `O=C(O/N=C1/CCC/C1=C\c1ccccc1)c1ccc(Cl)cc1`, the result was inactive.
For the compound `C[C@H](NC(=O)OC1C2C=CC(O)C1CC2)c1ccccc1` (some centres undefined), the EC50 was greater than 871 µM and the IC50 amounted to 776 µM.
Turning to `CCN1CCC(O)(c2ccc(Oc3ccccc3)cc2)C(C(=O)c2ccc(Oc3ccccc3)cc2)C1` (centres undefined), the EC50 was greater than 200 µM and the IC50 is 13.2 µM.
`CC1CCOS(=O)O1` (centres undefined): the EC50 was greater than 1820 µM and the IC50 is greater than 1820 µM.
Regarding `COc1ccc(N2C(=O)/C(=C\c3cccc(Oc4ccccc4)c3)SC2c2ccccc2)cc1` (centres undefined), the EC50 was greater than 200 µM and the IC50 was 8.51 µM.
As for `CCC1(OC(=O)CN2CCN(CCO)CC2)C(=O)OCc2c1cc1n(c2=O)Cc2cc3ccccc3nc2-1` (centres undefined), the EC50 was greater than 10 µM and the IC50 stood at 0.0912 µM.
For `COC(=O)CCC(C)C1CCC2[C@@H]3CC[C@@H]4CC(O)CC[C@]4(C)C3CC[C@]12C` (some centres undefined) the same measures were greater than 25.7 µM and greater than 25.7 µM.
Regarding `O=C(C=P(c1ccccc1)(c1ccccc1)c1ccccc1)c1ccccc1-c1ccccc1C(=O)C=P(c1ccccc1)(c1ccccc1)c1ccccc1`, the EC50 is greater than 1 µM and the IC50 came to 0.107 µM.
Consider `COC(=O)[C@@H]1C=CCN1S(=O)(=O)c1ccc(C)cc1`, for which the result was inactive.
Consider `CCCCCCN(CCCCCC)C(=O)Cc1c2n(c3ccccc13)Cc1ccccc1-2`, for which the EC50 is greater than 6.31 µM and the IC50 was greater than 6.31 µM.
Regarding `C/C(=N\N)C(CN(C)C)C(c1ccccc1)c1c(O)c2ccccc2oc1=O` (centres undefined), the EC50 was greater than 87.1 µM and the 50% inhibitory concentration (IC50) was greater than 87.1 µM.
As to `[N-]=[N+]=NCC1OCC(O)C(OCc2ccccc2)C1OCc1ccccc1` (centres undefined), the EC50 was greater than 200 µM and the IC50 was determined as 95.5 µM.
Turning to `O=C(NCCCCCCNC(=O)n1cc(F)c(=O)[nH]c1=O)NCCCOCCOCCOCCOCCOCCOCCOCCOCCOCCOCCOCCOCCOCCOCCOCCOCCOCCOCCOCCOCCOCCCNC(=O)C(O)C(O)C(O)C(O)CO` (centres undefined), the outcome was inactive.
As to `Cc1nc(NC(C)(CO)CO)nc2c1C(=O)Nc1ccccc1N2`, the EC50 was greater than 200 µM and the IC50 was greater than 200 µM.
As to `N#C/C(=C\c1cc(Cl)cc(Cl)c1O)c1ccc([N+](=O)[O-])cc1`, the EC50 was greater than 100 µM and the IC50 was 14.1 µM.
Regarding `C[C@@H]1N[C@@H](C)Cc2c(-c3ccc(O)c4ccccc34)c(O)cc(O)c21`, the EC50 was greater than 200 µM and the IC50 came to 30.9 µM.
For `C=CC(C)(CC/C=C(\C)CCC=C(C)C)c1cc(O)c(O)c(-c2cc(C(C)(C=C)CC/C=C(\C)CCC=C(C)C)cc(O)c2O)c1` (centres undefined) the same measures were greater than 5.75 µM and greater than 5.75 µM.
Turning to `COc1cc(CC2c3cc(OC)c(OC)cc3CC[N+]2(C)C)c(Oc2cc(CC3c4cc(OC)c(OC)cc4CC[N+]3(C)C)ccc2OC)cc1OC` (centres undefined), the outcome was inactive.
With `N#Cc1c(NC(=S)Nc2ccccc2)sc2c1CCCC2`, the EC50 is greater than 200 µM and the IC50 was greater than 200 µM.
As to `NC1=NN(c2ccc(Br)cc2)C2C=CC=CN12` (centres undefined), the EC50 was greater than 200 µM and the IC50 was determined as 151 µM.
Consider `CC1CCC(C(C)C)C(OC(=O)NCn2cc(-c3ccccc3)nn2)C1` (centres undefined), for which the EC50 was greater than 200 µM and the IC50 is greater than 200 µM.
`O=C(C[n+]1ccccc1Br)c1ccc2ccccc2c1`: the EC50 was greater than 200 µM and the IC50 is 9.55 µM.
On to `COc1c(Cc2ccccc2O)c(O)c(Cc2cc(Cc3ccccc3O)ccc2O)c(O)c1C(=O)CCc1ccccc1`, for which the EC50 is greater than 60.3 µM and the IC50 worked out at 21.4 µM.
For `O=c1[nH]nc(-c2ccccc2)n1/N=C/c1ccncc1` the same measures were greater than 200 µM and 52.5 µM.
For `CC(=O)O[C@]12CCCCC1C1(O)C(O)CCCC[C@H]12` (some centres undefined) the same measures were greater than 200 µM and greater than 200 µM.
The corresponding values for `N#CC(C#N)=CN1CCNC1=S` are greater than 200 µM and greater than 200 µM.
As to `COC(=O)C1c2c(C)cc3n2C(C=C(C)C3)C1C(=O)OC` (centres undefined), the EC50 was 75.9 µM and the IC50 amounted to 107 µM.
Regarding `Cc1ccc(S(=O)(=O)N/N=C(/c2ccccc2)c2ccsc2C)cc1`, the EC50 was greater than 200 µM and the IC50 was 29.5 µM.
On to `Cc1nc2n(c1C(N)=O)CCS2`, for which the EC50 is greater than 200 µM and the IC50 was greater than 200 µM.
`CCOC(=O)C(NC(=O)c1ccccc1)(Nc1ccc(Cl)cc1C(F)(F)F)C(F)(F)F` (centres undefined): the EC50 is greater than 200 µM and the IC50 came to 3.55 µM.
With `Nc1ccc(C(=O)O)c2[nH]c3ccccc3c(=O)c12`, the result was inactive.
On to `C[n+]1cccc2ccc(OC(=O)c3ccccc3)cc21`, for which the result was inactive.
With `CC(C)N1CCN(C(C)C)CCN(C(C)C)CC1.[O]=[Mo](=[O])=[O]`, the EC50 is greater than 100 µM and the 50% inhibitory concentration (IC50) came out at 75.9 µM.
Take `C[C@]12CC(O)C3[C@@H](CC=C4CC(O)CC[C@@]43C)C1CCC2O` (some centres undefined): the outcome was inactive.
With `CC1=CC2O[C@@H]3C[C@@H](O)[C@](C)(C2(C)CC1=O)C31CO1` (some centres undefined), the EC50 was greater than 200 µM and the IC50 is 3.72 µM.
On to `O=C1c2ccccc2CCC1(Br)Cc1ccccc1` (centres undefined), for which the EC50 was greater than 200 µM and the IC50 is 20.4 µM.
Regarding `CC1OC(OC2C(O[C@@H]3C[C@@H]4CC[C@@H]5[C@H](CC[C@]6(C)[C@@H]7[C@H](C[C@@H]56)O[C@]5(CC[C@@H](C)CO5)[C@H]7C)[C@@]4(C)C[C@H]3O)OC(CO)C(OC3OC(CO)C(O)C(O)C3O)C2O)C(O)C(O)C1O` (some centres undefined), the EC50 is greater than 10 µM and the IC50 worked out at 1.82 µM.
In the case of `O=C(NCCNCCNCCNC(=O)c1cc(-c2ccccc2)nc2ccccc12)c1cc(-c2ccccc2)nc2ccccc12`, the EC50 was greater than 20 µM and the IC50 came to 3.31 µM.
As for `COc1ccccc1NC(=O)CC(=O)n1nc(C)c(N=Nc2ccccc2Cl)c1C`, the result was inactive.
Take `CC(C)(C)C1CNP(=O)(c2ccccc2)OC1` (centres undefined): the EC50 was greater than 70.8 µM and the IC50 was greater than 70.8 µM.
`COc1ccc(/C=C/C(=O)c2sc(Nc3ccc([N+](=O)[O-])cc3)nc2C)cc1`: the EC50 was greater than 47.9 µM and the IC50 turned out to be 39.8 µM.
On to `O=C1CC2[C@@H](N3CCCC3)CCC(N1Cc1ccccc1)C2(O)O` (some centres undefined), for which the EC50 was greater than 200 µM and the IC50 is greater than 200 µM.
On to `COc1cccc(-c2nnc(N)o2)c1`, for which the result was inactive.
Same read-out and setting: for `C=CCSS(=O)CC=C` (centres undefined) the value was “inactive”.
For the compound `O=C(OCCN=c1c2ccccc2ccc2ccccc12)c1ccccc1`, the EC50 is greater than 200 µM and the IC50 was 120 µM.
Regarding `O=C(O)CCC(NC(=O)c1ccc(OCc2nc3cc(C(F)(F)F)ccc3nc2-c2ccccc2)cc1)C(=O)O` (centres undefined), the EC50 was greater than 200 µM and the half-inhibitory concentration (IC50) was greater than 200 µM.
For `O=C1CCC2=C(CCCC2=O)N1`, the EC50 is greater than 200 µM and the IC50 was greater than 200 µM.
As for `CCCCCCCCCCCCCCCCNc1ccn(C2CC(O)C(COC(c3ccccc3)(c3ccccc3)c3ccc(OC)cc3)O2)c(=O)n1` (centres undefined), the EC50 was greater than 200 µM and the IC50 turned out to be 45.7 µM.

These data come from PubChem BioAssay AID179 (DTP/NCI, 2004).
